Results as given in patent US11684603B2, “Neuraminidase inhibition to improve glycocalyx volume and function to ameliorate cardiovascular diseases in pathologies associated with glycocalyx damage” (priority 2017, dated 2023).

Tests used:
[1] = test system: glycocalyx; conditions: patients with familial hypercholesterolemia, short term treatment; cited from earlier work
[2] = test system: isolated aortas; test: Atomic force microscopy of aortic endothelial stiffness in treated db/db mice; type: in vivo; conditions: 5 mg twice a day via inhalation for 5 days, vs vehicle
Text: (§1) Data represent mean+/−SEM, *P<0.05, determined by two-tailed Student t test.

[3] = test system: human endothelial cells; test: Wheat Germ Agglutinin (WGA) staining of the glycocalyx of cultured human endothelial cells; type: cell-based; conditions: neuraminidase plus Zanamivir for 1 hour
[4] = test system: femoral arteries; test: Flow mediated dilation in isolated femoral arteries from treated db/db mice; type: in vivo; conditions: 5 mg twice a day via inhalation for 5 days, vs placebo control; increasing shear stress
Text: Vessels were pre-constricted with phenylephrine and exposed to increasing shear stress (dynes/cm^2) to assess flow mediated dilation. […] Data represent mean+/−SEM, *P<0.05, determined by two-tailed Student t test.

[5] = test system: femoral arteries; test: Vasodilation of pre-constricted femoral arteries from treated db/db mice to insulin, acetylcholine or sodium nitroprusside; type: in vivo; conditions: 5 mg twice a day via inhalation for 5 days, vs vehicle cohort
Text: In a separate set of experiments, vessels were pre-constricted and exposed to increasing concentrations of insulin (FIG. 8C) or endothelium-dependent vasodilator, acetylcholine (FIG. 8D). […] Data represent mean+/−SEM, *P<0.05, determined by two-tailed Student t test.
as §1

CC(C)c1nc(N(C)S(C)(=O)=O)nc(-c2ccc(F)cc2)c1/C=C/[C@@H](O)C[C@@H](O)CC(=O)O [Rosuvastatin]
glycocalyx volume [1]: partially restored glycocalyx volume
plasma hyaluronidase activity [1]: increase in plasma hyaluronidase activity

CC(=O)NC1C(NC(=N)N)C=C(C(=O)O)OC1C(O)C(O)CO (stereo not shown) [Zanamivir, 5-acetamido-4-guanidino-6-(1,2,3-trihydroxypropyl)-5,6-dihydro-4H-pyran-2-carboxylic acid]
aortic endothelial stiffness [2]: significant reduction
effect on the neuraminidase-induced reduction in WGA staining [3]: attenuated
flow mediated dilation [4]: significantly improved
endothelial dependent vasodilatory response to acetylcholine ([5]; increasing concentrations of acetylcholine): greater
endothelial dependent vasodilatory response to insulin ([5]; increasing concentrations of insulin): greater
